The structures appear in SMILES notation.

The target in this assay is T1, human PF4 (Homo sapiens, UniProt P02776).
T1 construct: PF4 is a 70 amino acid, lysine-rich 7.8 kDa platelet-specific protein; made in house; host or cells: Escherichia coli BL21DE3 pLysS (pT7-7) and/or Drosophila S2 cells
T1 sequence (P02776 32-101): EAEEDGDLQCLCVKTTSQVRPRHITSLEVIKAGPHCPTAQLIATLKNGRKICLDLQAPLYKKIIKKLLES
Kind of assay: Inhibition of PF4 tetramer formation (BS3 cross-linking, SDS-PAGE). The format is biochemical. The conditions noted are these: for inhibition at 5 µM: 5 μM inhibitor; for inhibition at 5 µM / inhibition at 10 µM / inhibition at 1 µM / inhibition at 3 µM: read-out: % inhibition of PF4 tetramer formation at single concentration of inhibitor; for inhibition at 10 µM: 10 μM inhibitor (column A); for IC50: read-out: IC50 of PF4 tetramer formation inhibition; for inhibition at 1 µM: 1 μM inhibitor; for inhibition at 3 µM: 3 μM inhibitor (column A). In short, it runs like this: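 Monomer, dimer, trimer and tetramer fractions were quantified by densitometry after reducing 12% SDS-PAGE of BS3-cross-linked (0.2 mM, 30 min, room temperature) PF4. Before cross-linking, 10 μg/ml E. coli-expressed human WT PF4 in PBS was exposed to compound for 15 min at 37° C or 60 min at room temperature; controls lacked compound.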

Regarding `CC(C)(C)OC(=O)N1CCC[C@H]1C(=O)C1C(=O)c2ccc(-c3ccc4c(c3)C(=O)C(C(=O)[C@@H]3CCCN3C(=O)OC(C)(C)C)C4=O)cc2C1=O` (stereo partly drawn) [Example 209, tert-butyl (2S)-2-{2′-[(2S)-1-[(tert-butoxy)carbonyl]pyrrolidine-2-carbonyl]-1,1′,3,3′-tetraoxo-1H,1′H,2H,2′H,3H,3′H-[5,5′-biindene]-2-carbonyl}pyrrolidine-1-carboxylate], the inhibition at 5 µM is 75%; the inhibition at 10 µM was 96%; the IC50 (as a rule, the concentration needed to halve the response being measured) amounted to 4.2 µM.
With `CC(C)(C)OC(=O)N1CCCC[C@@H]1C(=O)C1C(=O)c2ccc(Oc3ccc4c(c3)C(=O)C(C(=O)[C@H]3CCCCN3C(=O)OC(C)(C)C)C4=O)cc2C1=O` (stereo partly drawn) [Example 274, tert-butyl (2R)-2-[5-({2-[(2R)-1-[(tert-butoxy)carbonyl]piperidine-2-carbonyl]-1,3-dioxo-2,3-dihydro-1H-inden-5-yl}oxy)-1,3-dioxo-2,3-dihydro-1H-indene-2-carbonyl]piperidine-1-carboxylate], the inhibition at 1 µM stood at 21% and the inhibition at 3 µM is 60%.
Turning to `CC(=O)C1C(=O)c2ccc(-c3ccc4c(c3)C(=O)C(C(C)=O)C4=O)cc2C1=O` (stereo not shown) [Example 10, 2-acetyl-5-(2-acetyl-2,3-dihydro-1,3dioxo-1h-inden-5-yl)-2,3-dihydro-1,3-dioxo-1h-indene], the IC50 stood at 1.35 µM.
As to `CC(C)CCCC(=O)C1C(=O)c2ccc(S(=O)(=O)c3ccc4c(c3)C(=O)C(C(=O)CCCC(C)C)C4=O)cc2C1=O` (stereo not shown) [Example 171, 2-(5-methylhexanoyl)-5-{[2-(5-methylhexanoyl)-1,3-dioxo-2,3-dihydro-1H-inden-5-yl]sulfonyl}-2,3-dihydro-1H-indene-1,3-dione], the inhibition at 5 µM amounted to 62% and the inhibition at 10 µM was determined as 75%.
On to `O=C(O)CCC(=O)C1C(=O)c2ccc(C(=O)c3ccc4c(c3)C(=O)C(C(=O)CCC(=O)O)C4=O)cc2C1=O` (stereo not shown) [Example 130, 4-{5-[2-(3-carboxypropanoyl)-1,3-dioxo-2,3-dihydro-1H-indene-5-carbonyl]-1,3-dioxo-2,3-dihydro-1H-inden-2-yl}-4-oxobutanoic acid], for which the half-inhibitory concentration (IC50) worked out at 1.4 µM.
On to `O=C(O)CCNC(=O)C1C(=O)c2ccc(Oc3ccc4c(c3)C(=O)C(C(=O)NCCC(=O)O)C4=O)cc2C1=O` (stereo not shown) [Example 305, 3-{[5-({2-[(2-carboxyethyl)carbamoyl]-1,3-dioxo-2,3-dihydro-1H-inden-5-yl}oxy)-1,3-dioxo-2,3-dihydro-1H-inden-2-yl]formamido}propanoic acid], for which the inhibition at 1 µM amounted to 13% and the inhibition at 3 µM was found to be 50%.
The corresponding values for `O=C(O)CNC(=O)C1C(=O)c2ccc(Oc3ccc4c(c3)C(=O)C(C(=O)NCC(=O)O)C4=O)cc2C1=O` (stereo not shown) [Example 307, 2-{[5-({2-[(carboxymethyl)carbamoyl]-1,3-dioxo-2,3-dihydro-1H-inden-5-yl}oxy)-1,3-dioxo-2,3-dihydro-1H-inden-2-yl]formamido}acetic acid] are 15% and 47%.
`CC(=O)C1C(=O)c2ccc(Oc3ccc4c(n3)C(=O)C(C(C)=O)C4=O)cc2C1=O` (stereo not shown) [Example 330, 6-acetyl-2-[(2-acetyl-1,3-dioxo-2,3-dihydro-1H-inden-5-yl)oxy]-5H,6H,7H-cyclopenta[b]pyridine-5,7-dione]: the inhibition at 1 µM was determined as 6% and the inhibition at 3 µM was determined as 22%.
With `CC(C)OC(=O)N1CCC[C@H]1C(=O)C1C(=O)c2ccc(C(=O)c3ccc4c(c3)C(=O)C(C(=O)[C@@H]3CCCN3C(=O)OC(C)C)C4=O)cc2C1=O` (stereo partly drawn) [Example 134, propan-2-yl (2S)-2-(5-{1,3-dioxo-2-[(2S)-1-[(propan-2-yloxy)carbonyl]pyrrolidine-2-carbonyl]-2,3-dihydro-1H-indene-5-carbonyl}-1,3-dioxo-2,3-dihydro-1H-indene-2-carbonyl)pyrrolidine-1-carboxylate], the IC50 is 1.1 µM.
Turning to `CC(C)(C)OCC(=O)C1C(=O)c2ccc(C(=O)c3ccc4c(c3)C(=O)C(C(=O)COC(C)(C)C)C4=O)cc2C1=O` (stereo not shown) [Example 235, 2-[2-(tert-butoxy)acetyl]-5-{2-[2-(tert-butoxy)acetyl]-1,3-dioxo-2,3-dihydro-1H-indene-5-carbonyl}-2,3-dihydro-1H-indene-1,3-dione], the inhibition at 1 µM is 11% and the inhibition at 3 µM stood at 29%.
In the same order, the values of `COC(=O)[C@H]1CCCCC1C(=O)C1C(=O)c2ccc(C(=O)c3ccc4c(c3)C(=O)C(C(=O)C3CCCC[C@@H]3C(=O)OC)C4=O)cc2C1=O` (stereo in doubt) [Example 256, methyl (1S)-2-(5-{2-[(2S)-2-(methoxycarbonyl)cyclohexanecarbonyl]-1,3-dioxo-2,3-dihydro-1H-indene-5-carbonyl}-1,3-dioxo-2,3-dihydro-1H-indene-2-carbonyl)cyclohexane-1-carboxylate] are 13% and 32%.
Take `O=C1c2ccc(S(=O)(=O)c3ccc4c(c3)C(=O)C(C(=O)C3CCN(C(=O)OCc5ccccc5)C3)C4=O)cc2C(=O)C1C(=O)C1CCN(C(=O)OCc2ccccc2)C1` (stereo not shown) [Example 160, benzyl 3-{5-[(2-{1-[(benzyloxy)carbonyl]pyrrolidine-3-carbonyl}-1,3-dioxo-2,3-dihydro-1H-inden-5-yl)sulfonyl]-1,3-dioxo-2,3-dihydro-1H-indene-2-carbonyl}pyrrolidine-1-carboxylate]: the inhibition at 5 µM was 75%, the inhibition at 10 µM is 88% and the IC50 amounted to 5.1 µM.
In the case of `O=C(Nc1ccc(I)cc1)C1C(=O)c2ccc(S(=O)(=O)c3ccc4c(c3)C(=O)C(C(=O)Nc3ccc(I)cc3)C4=O)cc2C1=O` (stereo not shown) [Example 95, N-(4-iodophenyl)-5-({2-[(4-iodophenyl)carbamoyl]-1,3-dioxo-2,3-dihydro-1H-inden-5-yl}sulfonyl)-1,3-dioxo-2,3-dihydro-1H-indene-2-carboxamide], the inhibition at 5 µM is 33% and the inhibition at 10 µM was determined as 69%.
In the case of `O=C(CN1CCCC1=O)C1C(=O)c2ccc(S(=O)(=O)c3ccc4c(c3)C(=O)C(C(=O)CN3CCCC3=O)C4=O)cc2C1=O` (stereo not shown) [Example 184, 5-({1,3-dioxo-2-[2-(2-oxopyrrolidin-1-yl)acetyl]-2,3-dihydro-1H-inden-5-yl}sulfonyl)-2-[2-(2-oxopyrrolidin-1-yl)acetyl]-2,3-dihydro-1H-indene-1,3-dione], the inhibition at 5 µM amounted to 87%, the inhibition at 10 µM amounted to 95% and the concentration for half-maximal inhibition (IC50) was 2 µM.
Turning to `O=C(c1ccc2c(c1)C(=O)C(C(=O)Nc1ccc(Cl)cc1Cl)C2=O)c1ccc2c(c1)C(=O)C(C(=O)Nc1ccc(Cl)cc1Cl)C2=O` (stereo not shown) [Example 80, N-(2,4-dichlorophenyl)-5-{2-[(2,4-dichlorophenyl)carbamoyl]-1,3-dioxo-2,3-dihydro-1H-indene-5-carbonyl}-1,3-dioxo-2,3-dihydro-1H-indene-2-carboxamide], the inhibition at 5 µM worked out at 90% and the inhibition at 10 µM was 90%.
Regarding `CCNC(=O)C1C(=O)c2ccc(Oc3ccc4c(c3)C(=O)C(C(=O)NCC)C4=O)cc2C1=O` (stereo not shown) [Example 334, N-ethyl-5-{[2-(ethylcarbamoyl)-1,3-dioxo-2,3-dihydro-1H-inden-5-yl]oxy}-1,3-dioxo-2,3-dihydro-1H-indene-2-carboxamide], the inhibition at 1 µM was 27% and the inhibition at 3 µM came out at 40%.
Regarding `CC(C)(C)CC(=O)NCC(=O)C1C(=O)c2ccc(S(=O)(=O)c3ccc4c(c3)C(=O)C(C(=O)CNC(=O)CC(C)(C)C)C4=O)cc2C1=O` (stereo not shown) [Example 186, N-{2-[5-({2-[2-(3,3-dimethylbutanamido)acetyl]-1,3-dioxo-2,3-dihydro-1H-inden-5-yl}sulfonyl)-1,3-dioxo-2,3-dihydro-1H-inden-2-yl]-2-oxoethyl}-3,3-dimethylbutanamide], the inhibition at 5 µM worked out at 95%, the inhibition at 10 µM was determined as 95% and the half-maximal inhibitory concentration (IC50) amounted to 2.6 µM.
Consider `CC(=O)OC[C@H]1O[C@@H](OC(C)=O)[C@H](NC(=O)C2C(=O)c3ccc(C(=O)c4ccc5c(c4)C(=O)C(C(=O)N[C@H]4[C@H](OC(C)=O)O[C@H](COC(C)=O)[C@@H](OC(C)=O)[C@@H]4OC(C)=O)C5=O)cc3C2=O)[C@@H](OC(C)=O)[C@@H]1OC(C)=O` (stereo partly drawn) [Example 398, [(2R,3S,4R,5R,6S)-3,4,6-tris(acetyloxy)-5-[5-(1,3-dioxo-2-{[(2S,3R,4R,5S,6R)-2,4,5-tris(acetyloxy)-6-[(acetyloxy)methyl]oxan-3-yl]carbamoyl}-2,3-dihydro-1H-indene-5-carbonyl)-1,3-dioxo-2,3-dihydro-1H-indene-2-amido]oxan-2-yl]methyl acetate], for which the inhibition at 1 µM was 6% and the inhibition at 3 µM is 23%.
For `C[C@H]1C[C@@H](C(=O)C2C(=O)c3ccc(S(=O)(=O)c4ccc5c(c4)C(=O)C(C(=O)[C@@H]4C[C@H](C)CN4C(=O)OC(C)(C)C)C5=O)cc3C2=O)N(C(=O)OC(C)(C)C)C1` (stereo partly drawn) [Example 224, tert-butyl (2S,4S)-2-[5-({2-[(2S,4S)-1-[(tert-butoxy)carbonyl]-4-methylpyrrolidine-2-carbonyl]-1,3-dioxo-2,3-dihydro-1H-inden-5-yl}sulfonyl)-1,3-dioxo-2,3-dihydro-1H-indene-2-carbonyl]-4-methylpyrrolidine-1-carboxylate], the inhibition at 5 µM came out at 100%, the inhibition at 10 µM was found to be 95% and the 50% inhibitory concentration (IC50) came out at 2.2 µM.
